26 compounds from patent US20220135591A1, “HETEROCYCLIC COMPOUNDS AS INHIBITORS OF MONOACYLGLYCEROL LIPASE (MAGL)” (Hoffmann-La Roche Inc., priority 2019, published 2022) can be followed below.

In this test the target is T1, MAGL (recombinant wild-type) (Homo sapiens, UniProt Q99685).
T1 sequence (Q99685 1-303): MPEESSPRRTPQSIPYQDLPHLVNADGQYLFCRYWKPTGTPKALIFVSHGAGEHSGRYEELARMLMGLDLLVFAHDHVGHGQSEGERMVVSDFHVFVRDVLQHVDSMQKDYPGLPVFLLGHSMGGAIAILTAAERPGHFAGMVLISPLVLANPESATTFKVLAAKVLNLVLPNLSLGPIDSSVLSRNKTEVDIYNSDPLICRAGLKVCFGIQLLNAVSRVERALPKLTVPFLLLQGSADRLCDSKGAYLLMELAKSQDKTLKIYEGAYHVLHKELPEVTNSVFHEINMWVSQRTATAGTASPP
Briefly: 4-NPA assay: MAGL inhibitory activity by hydrolysis of 4-nitrophenylacetate, absorbance at 405 nm. The test is classed as biochemical. The settings on record: 4-NPA assay (values without footnote [b]). As for the experimental part: Compounds were profiled for MAGL inhibitory activity by measuring the enzymatic activity of MAGL by following the hydrolysis of 4-nitrophenylacetate resulting in 4-nitrophenol, which absorbs at 405-412 nm (G. G. Muccioli, G. Labar, D. M. Lambert, Chem. Bio. Chem. 2008, 9, 2704-2710). This assay is hereinafter abbreviated “4-NPA assay”.
The assay was carried out in 384 well assay plates (black with clear bottom, non-binding surface treated, Corning Ref. 3655) in a total volume of 40 μL. Compound dilutions were made in 100% DMSO (VWR Chemicals 23500.297) in a polypropylene plate in 3-fold dilution steps to give a final concentration range in the assay from 25 μM to 1.7 nM. 1 μL compound dilutions (100% DMSO) were added to 19 μL MAGL (recombinant wild-type) in assay buffer (50 mM TRIS (GIBCO, 15567-027), 1 mM EDTA (Fluka, 03690-100 mL)). The plate was shaked for 1 min at 2000 rpm (Variomag Teleshake) and then incubated for 15 min at RT. To start the reaction, 20 μL 4-Nitrophenlyacetate (Sigma N-8130) in assay buffer with 6% EtOH was added. The final concentrations in the assay were 1 nM MAGL and 300 μM 4-Nitrophenylacetate. After shaking (1 min, 2000 rpm) and 5 min incubation at RT, the absorbance at 405 nm was measured for a first time (Molecular Devices, SpectraMax Paradigm). A second measurement was then done after incubation for 80 min at RT. From the two measurements, the slope was calculated by subtracting the first from the second measurement.

By IC50 is commonly meant the concentration that gives 50% inhibition. `O=C(c1ccc(N2CCC3(C2)CC3(F)F)cc1)N1CCN(c2nc3nc(Cl)ccc3o2)CC1` (centres unmarked) [Example 202, [4-(5-chloro-[1,3]oxazolo[4,5-b]pyridin-2-yl)piperazin-1-yl]-[4-(2,2-difluoro-5-azaspiro[2.4]heptan-5-yl)phenyl]methanone]: the IC50 turned out to be 14 nM. As for `Cc1ccc2oc(N3CCN(C(=O)c4ccc(-c5cnn(C(C)(C)C)c5)cc4)CC3)nc2n1` [Example 47, [4-(1-tert-butylpyrazol-4-yl)phenyl]-[4-(5-methyloxazolo[4,5-b]pyridin-2-yl)piperazin-1-yl]methanone], the IC50 amounted to 37 nM. Turning to `Cc1ccc2oc(N3CCN(C(=O)c4ccc(-c5noc(C(C)(C)C)n5)c(F)c4)CC3)nc2n1` [Example 58, [4-(5-tert-butyl-1,2,4-oxadiazol-3-yl)-3-fluoro-phenyl]-[4-(5-methyloxazolo[4,5-b]pyridin-2-yl)piperazin-1-yl]methanone], the IC50 is 43 nM. For the compound `CC(C)(CF)c1nc(-c2ccc(C(=O)N3CCN(c4nc5nc(Cl)ccc5o4)CC3)cc2)no1` [Example 20, (4-(5-chlorooxazolo[4,5-b]pyridin-2-yl)piperazin-1-yl)(4-(5-(1-fluoro-2-methylpropan-2-yl)-1,2,4-oxadiazol-3-yl)phenyl)methanone], the IC50 was determined as 19 nM. To `CC(C)(C)c1cnn(-c2ccc(C(=O)N3CCN(c4nc5nc(Cl)ccc5o4)CC3)cc2)c1` [Example 52, [4-(4-tert-butylpyrazol-1-yl)phenyl]-[4-(5-chlorooxazolo[4,5-b]pyridin-2-yl)piperazin-1-yl]methanone] belongs 5 nM; to `Cc1ccc2oc(N3CCN(C(=O)c4ccc5nc(C6CC6)oc5c4)CC3)nc2n1` [Example 22, (2-cyclopropyl-1,3-benzoxazol-6-yl)-[4-(5-methyloxazolo[4,5-b]pyridin-2-yl)piperazin-1-yl]methanone], 1250 nM. For `O=C(c1cnc(OCC2(C(F)(F)F)CC2)c(F)c1)N1CCN(c2nc3nc(Cl)ccc3o2)CC1` [Example 144, (4-(5-chlorooxazolo[4,5-b]pyridin-2-yl)piperazin-1-yl)(5-fluoro-6-((1-(trifluoromethyl)cyclopropyl)methoxy)pyridin-3-yl)methanone], the IC50 is 105 nM.

In the case of `Cc1ccc2oc(N3CCN(C(=O)c4ccc(N5CC(OC(C)C(F)(F)F)C5)cc4F)CC3)nc2n1` (centres unmarked) [Example 207, (2-fluoro-4-(3-((1,1,1-trifluoropropan-2-yl)oxy)azetidin-1-yl)phenyl)(4-(5-methyloxazolo[4,5-b]pyridin-2-yl)piperazin-1-yl)methanone], the IC50 was determined as 16 nM.

For `CC1(COc2ncc(C(=O)N3CCN(c4nc5nc(Cl)ccc5o4)CC3)cc2F)CC1` [Example 145, (4-(5-chlorooxazolo[4,5-b]pyridin-2-yl)piperazin-1-yl)(5-fluoro-6-((1-methylcyclopropyl)methoxy)pyridin-3-yl)methanone], the IC50 came out at 216 nM. Regarding `CC(C)(C)Cc1nc(-c2ccc(C(=O)N3CCN(c4nc5ncccc5o4)CC3)cc2)no1` [Example 13, (4-(5-neopentyl-1,2,4-oxadiazol-3-yl)phenyl)(4-(oxazolo[4,5-b]pyridin-2-yl)piperazin-1-yl)methanone], the IC50 came out at 37 nM. On to `COc1ccc2oc(N3CCN(C(=O)c4ccc(-c5noc(C(C)(C)C)n5)cc4)CC3)nc2n1` [Example 197, (4-(5-(tert-butyl)-1,2,4-oxadiazol-3-yl)phenyl)(4-(5-methoxyoxazolo[4,5-b]pyridin-2-yl)piperazin-1-yl)methanone], for which the IC50 was determined as 471 nM. In the case of `Cc1ccc2oc(N3CCN(C(=O)c4cnc(N5CC(OC(C)C(F)(F)F)C5)cc4C)CC3)nc2n1` (centres unmarked) [Example 220, (4-methyl-6-(3-((1,1,1-trifluoropropan-2-yl)oxy)azetidin-1-yl)pyridin-3-yl)(4-(5-methyloxazolo[4,5-b]pyridin-2-yl)piperazin-1-yl)methanone], the IC50 is 4000 nM. As for `CC(C)(C)Cc1nc(-c2ccc(C(=O)N3CCN(c4nc5nc(Cl)ccc5o4)CC3)cc2)no1` [Example 10, (4-(5-chlorooxazolo[4,5-b]pyridin-2-yl)piperazin-1-yl)(4-(5-neopentyl-1,2,4-oxadiazol-3-yl)phenyl)methanone], the IC50 was found to be 2 nM. For `Cc1ccc2oc(N3CCN(C(=O)c4cnc(N5CC(OC(C)C(F)(F)F)C5)c(F)c4Cl)CC3)nc2n1` (centres unmarked) [Example 217, (4-chloro-5-fluoro-6-(3-((1,1,1-trifluoropropan-2-yl)oxy)azetidin-1-yl)pyridin-3-yl)(4-(5-methyloxazolo[4,5-b]pyridin-2-yl)piperazin-1-yl)methanone], the IC50 worked out at 167 nM. To `Cc1ccc2oc(N3CCN(C(=O)c4cnc(N5CC6(CCC6(F)F)C5)cc4C)CC3)nc2n1` [Example 221, (6-(5,5-difluoro-2-azaspiro[3.3]heptan-2-yl)-4-methylpyridin-3-yl)(4-(5-methyloxazolo[4,5-b]pyridin-2-yl)piperazin-1-yl)methanone] belongs 13100 nM. In the case of `CC(C)(C)Cc1nnc(-c2ccc(C(=O)N3CCN(c4nc5nc(Cl)ccc5o4)CC3)cc2)o1` [Example 16, [4-(5-chlorooxazolo[4,5-b]pyridin-2-yl)piperazin-1-yl]-[4-[5-(2,2-dimethylpropyl)-1,3,4-oxadiazol-2-yl]phenyl]methanone], the IC50 turned out to be 10 nM.

On to `Cc1ccc2oc(N3CCN(C(=O)c4ccc(OCC5(C)CC5)c(F)c4)CC3)nc2n1` [Example 71, [3-fluoro-4-[(1-methylcyclopropyl)methoxy]phenyl]-[4-(5-methyloxazolo[4,5-b]pyridin-2-yl)piperazin-1-yl]methanone], for which the IC50 was 382 nM.

As to `Cc1ccc2oc(N3CCN(C(=O)c4ccc(N5CC(OC(C)C(F)(F)F)C5)nn4)CC3)nc2n1` (centres unmarked) [Example 218, (4-(5-methyloxazolo[4,5-b]pyridin-2-yl)piperazin-1-yl)(6-(3-((1,1,1-trifluoropropan-2-yl)oxy)azetidin-1-yl)pyridazin-3-yl)methanone], the IC50 is 1540 nM. In the case of `Cc1ccc2oc(N3CCN(C(=O)c4cnc(OCC5(C)CC5)c(C)c4)CC3)nc2n1` [Example 142, (5-methyl-6-((1-methylcyclopropyl)methoxy)pyridin-3-yl)(4-(5-methyloxazolo[4,5-b]pyridin-2-yl)piperazin-1-yl)methanone], the IC50 amounted to 106 nM. Regarding `Cc1ccc2oc(N3CCN(C(=O)c4ccc(OCC5(C)CC5)c(-c5ccc(CO)cc5)c4)CC3)nc2n1` [Example 187, [3-[4-(hydroxymethyl)phenyl]-4-[(1-methylcyclopropyl)methoxy]phenyl]-[4-(5-methyl-[1,3]oxazolo[4,5-b]pyridin-2-yl)piperazin-1-yl]methanone], the IC50 was determined as 9 nM. For `Cc1ccc2oc(N3CCN(C(=O)c4ccc(-c5noc(CC(C)(C)C)n5)c(-c5ccc(CO)cc5)c4)CC3)nc2n1` [Example 186, [4-[5-(2,2-dimethylpropyl)-1,2,4-oxadiazol-3-yl]-3-[4-(hydroxymethyl)phenyl]phenyl]-[4-(5-methyl-[1,3]oxazolo[4,5-b]pyridin-2-yl)piperazin-1-yl]methanone] the value was 12 nM; for `Cc1ccc2oc(N3CCN(C(=O)c4ccc(-n5cnc(C(C)(C)C)c5)cc4)CC3)nc2n1` [Example 55, [4-(4-tert-butylimidazol-1-yl)phenyl]-[4-(5-methyloxazolo[4,5-b]pyridin-2-yl)piperazin-1-yl]methanone], 63 nM; for `Cc1ccc2oc(N3CCN(C(=O)c4ccc5nc(N6CC7(CCCC7)C6)oc5c4)CC3)nc2n1` [Example 6, (2-(2-azaspiro[3.4]octan-2-yl)benzo[d]oxazol-6-yl)(4-(5-methyloxazolo[4,5-b]pyridin-2-yl)piperazin-1-yl)methanone], 25 nM. On to `Cc1ccc2oc(N3CCN(C(=O)c4cnc(OCC5(C(F)(F)F)CC5)c(C)c4)CC3)nc2n1` [Example 143, (5-methyl-6-((1-(trifluoromethyl)cyclopropyl)methoxy)pyridin-3-yl)(4-(5-methyloxazolo[4,5-b]pyridin-2-yl)piperazin-1-yl)methanone], for which the IC50 was found to be 77 nM. For `Cc1ccc2oc(N3CCN(C(=O)c4ccc(N5CC(OC(C)C(F)(F)F)C5)c(F)c4)CC3)nc2n1` (centres unmarked) [Example 210, (3-fluoro-4-(3-((1,1,1-trifluoropropan-2-yl)oxy)azetidin-1-yl)phenyl)(4-(5-methyloxazolo[4,5-b]pyridin-2-yl)piperazin-1-yl)methanone] the value was 24 nM. With `CC(C)=Cc1nc(-c2ccc(C(=O)N3CCN(c4nc5nc(Cl)ccc5o4)CC3)cc2)no1` [Example 266, [4-(5-chlorooxazolo[4,5-b]pyridin-2-yl)piperazin-1-yl]-[4-[5-(2-methylprop-1-enyl)-1,2,4-oxadiazol-3-yl]phenyl]methanone], the IC50 came to 101 nM.
